Consider 35 compounds from ChEMBL document CHEMBL1155491, “Acylurea connected straight chain hydroxamates as novel histone deacetylase inhibitors: Synthesis, SAR, and in vivo antitumor activity” (Bioorg Med Chem Lett, 2010).

As a reminder, the IC50 is the concentration at which inhibition is half-maximal. Low values mean inhibition by little substance, high ones a need for much substance. One may read the solubility as the dissolved amount per volume that the medium holds. Broadly, the bioavailability is the share of a dose that reaches the circulation, judged against a reference dose that is usually intravenous. A higher bioavailability goes with good availability. What is called logD is the decadic logarithm of the distribution of all forms, ionised or not, between an organic phase and buffer at a given pH. Read a high logD as higher lipophilicity. What is called Papp A→B is the apparent permeability from the apical to the basolateral side of a cell layer. A word on the clearance: it is the volume of plasma or blood freed of the substance per unit of time. A high value points to efficient removal.

The target of data set [1] is T1, Histone deacetylase 1 (Homo sapiens, UniProt Q13547).
T1 sequence (Q13547 whole entry): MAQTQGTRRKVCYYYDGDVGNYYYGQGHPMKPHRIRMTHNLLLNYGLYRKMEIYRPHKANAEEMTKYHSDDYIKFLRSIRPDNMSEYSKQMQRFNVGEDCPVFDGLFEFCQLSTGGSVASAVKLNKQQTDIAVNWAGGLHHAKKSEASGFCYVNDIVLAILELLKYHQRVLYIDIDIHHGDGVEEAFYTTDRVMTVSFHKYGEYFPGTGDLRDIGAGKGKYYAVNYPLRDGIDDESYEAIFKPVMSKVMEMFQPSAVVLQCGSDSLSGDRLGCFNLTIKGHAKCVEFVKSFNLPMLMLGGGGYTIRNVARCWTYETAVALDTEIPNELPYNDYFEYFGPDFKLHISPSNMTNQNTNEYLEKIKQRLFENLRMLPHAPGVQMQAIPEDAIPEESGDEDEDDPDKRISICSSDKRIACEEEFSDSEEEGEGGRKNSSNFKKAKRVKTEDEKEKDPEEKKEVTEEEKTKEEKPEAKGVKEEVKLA
Data set [2] addresses T1, Histone deacetylase 1. The source holds these as a separate data set.
For a further data set, the system named is PC-3. The data set can be described thus: Antiproliferative activity against human PC3 cells. It counts as functional, cell-based.
Data set [3] concerns HCT-116. Briefly: Antiproliferative activity against human HCT116 cells. It counts as functional, cell-based.
In another data set the test system is A2780. The data set can be described thus: Antiproliferative activity against human A2780 cells. It counts as functional, cell-based.
Data set [4] in a line: Solubility at pH 7. It counts as physicochemical. Conditions: buffer.
Data set [5] in a line: Half life in human liver microsome. In kind it is ADME. As to conditions: liver microsomes. (Liver microsomes are vesicles of endoplasmic reticulum, rich in cytochrome P450 enzymes.)
The target of data set [6] is T1, Histone deacetylase 1. Briefly: Inhibition of HDAC1 in human COLO205 cells assessed as induction of histone H3 acetylation at 10 uM by Western-immuno blotting. It counts as cell-based. As to conditions: COLO 205.
The next data set has as its target T2, Histone deacetylase 8 (Homo sapiens, UniProt Q9BY41).
T2 sequence (Q9BY41 whole entry): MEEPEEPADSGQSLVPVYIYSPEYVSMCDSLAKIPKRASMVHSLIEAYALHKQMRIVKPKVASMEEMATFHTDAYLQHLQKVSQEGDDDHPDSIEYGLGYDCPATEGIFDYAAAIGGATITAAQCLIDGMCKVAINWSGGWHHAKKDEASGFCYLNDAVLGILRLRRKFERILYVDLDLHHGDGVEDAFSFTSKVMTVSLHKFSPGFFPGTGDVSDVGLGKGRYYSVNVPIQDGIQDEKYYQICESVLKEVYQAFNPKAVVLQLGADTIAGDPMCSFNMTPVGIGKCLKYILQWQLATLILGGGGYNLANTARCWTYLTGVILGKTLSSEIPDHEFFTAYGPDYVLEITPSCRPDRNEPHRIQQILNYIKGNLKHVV
The data set can be described thus: Inhibition of HDAC8.

Data set [7] can be described thus: Half life in mouse liver microsome. As to conditions: liver microsomes. In kind it is ADME.
Data set [8] is described as follows: Volume of distribution at steady state in mouse at 10 mg/kg, iv. In kind it is ADME, organism-based. More on the design: dose 10 mg/kg, route intravenous. As to conditions: in vivo, read-out: Vdss.
Data set [9] is described as follows: Half life in rat liver microsome. In kind it is ADME. As to conditions: liver microsomes.
The nature of data set [10]: Thermodynamic solubility at pH 7.4. In kind it is physicochemical. Conditions: buffer, read-out: Therm_solubility.
Data set [11] is described as follows: Oral bioavailability in mouse at 50 mg/kg, po. As to conditions: in vivo.
Data set [12] can be described thus: Octanol-water distribution coefficient, log D of the compound. It counts as physicochemical.
Data set [13] in a line: Apparent permeability from apical to basolateral side of Caco-2 cells. It counts as ADME, cell-based. As to conditions: human. Background: Passage across Caco-2 layers is used to estimate intestinal permeability.
Data set [14] has as its system HCT-116. The data set can be described thus: Antitumor activity against human HCT116 cells xenografted in BALB/c mouse at 200 mg/kg, po after 21 days. In kind it is functional, organism-based. More on the design: dose 200 mg/kg.
The nature of data set [15]: Clearance in mouse at 10 mg/kg, iv. It counts as ADME, organism-based. More on the design: dose 10 mg/kg, route intravenous. Conditions: in vivo.
Data set [16] can be described thus: Toxicity in human PC3 cells xenografted nude mouse. It counts as organism-based, PC-3. As to conditions: in vivo. (In general: A xenograft is tissue or cells of one species grown in another, often human tumour cells in immunodeficient mice.)
The nature of data set [17]: Elimination half life in mouse at 10 mg/kg, iv. It counts as ADME, organism-based. More on the design: dose 10 mg/kg, route intravenous. As to conditions: in vivo, read-out: beta t1/2 (converted).

Values after ≈ are worked out from the molar mass of the structure shown. Active and inactive are the calls of the source. No cut-off for these calls is given here.

Turning to `O=C(CCCCCNC(=O)NC(=O)c1ccc(N2CCOCC2)c([N+](=O)[O-])c1)NO`, the half-inhibitory concentration (IC50) was 12000 nM on Histone deacetylase 1 [1] and 55 nM on Histone deacetylase 1 [2].
On to `CN(C)CCn1cnc2cc(C(=O)NC(=O)NCCCCCC(=O)NO)ccc21`, for which the figures for the IC50 at Histone deacetylase 1 [1] and against Histone deacetylase 1 [2] were 19500 nM and 49 nM, respectively.
As to `CCN(CC)CCNc1ccc(C(=O)NC(=O)NCCCCCC(=O)NO)cc1[N+](=O)[O-]`, the IC50 amounted to 1700 nM on Histone deacetylase 1 [1] and 20 nM at Histone deacetylase 1 [2].
On the same counts, the results for `O=C(CCCCCNC(=O)NC(=O)c1ccc(NS(=O)(=O)c2ccccc2)cc1)NO` are over 100000 nM and 97 nM.
For `Nc1cc(C(=O)NC(=O)NCCCCCC(=O)NO)ccc1Cl` the same measures were 1250 nM and 11 nM.
On the same counts, the results for `O=C(CCCCCCN(Cc1ccccn1)C(=O)NC(=O)c1ccccc1)NO` are 9060 nM and 555 nM.
Consider `CN(C)CC(C)(C)Cn1cnc2cc(C(=O)NC(=O)NCCCCCC(=O)NO)ccc21`, for which the half-inhibitory concentration (IC50) was determined as 3700 nM at Histone deacetylase 1 [1] and 20 nM on Histone deacetylase 1 [2].
`O=C(CCCCCCN(Cc1ccccc1)C(=O)NC(=O)c1ccccc1)NO` showed an IC50 on Histone deacetylase 1 [2] of 1600 nM.
With `O=C(CCCCCNC(=O)NC(=O)c1ccc(NCCN2CCCC2)c([N+](=O)[O-])c1)NO`, the IC50 at Histone deacetylase 1 [1] is 2420 nM; with PC-3, 920 nM; in the data set on HCT-116 [3] it was 1330 nM; at Histone deacetylase 1 [2], 22 nM; in the data set with A2780, 990 nM. Also, the solubility in data set [4] was over 205 µM. The half-life in [5] is over 30 min. The result on Histone deacetylase 1 [6] was Active.
As for `CC(C)(C)c1ccc(C(=O)NC(=O)NCCCCCC(=O)NO)cc1`, the IC50 at Histone deacetylase 1 [1] is 2350 nM; at Histone deacetylase 1 [2], 24 nM.
On the same counts, the results for `O=C(CCCCCNC(=O)NC(=O)c1ccc(N2CCCC2)c([N+](=O)[O-])c1)NO` are 3450 nM and 20 nM.
Regarding `O=C(CCCCCNC(=O)NC(=O)c1ccc2c(c1)ncn2CCc1ccccc1)NO`, the IC50 against Histone deacetylase 1 [1] came out at 9700 nM; at Histone deacetylase 1 [2], 25 nM.
On the same counts, the results for `O=C(CCCCCNC(=O)NC(=O)c1cccc([N+](=O)[O-])c1)NO` are 2800 nM and 92 nM.
Take `O=C(CCCCCNC(=O)NC(=O)c1ccc(NC(=O)Cc2ccccc2)cc1)NO`: the half-inhibitory concentration (IC50) against Histone deacetylase 1 [1] was determined as 13200 nM; against Histone deacetylase 1 [2] it was 44 nM. The amount in solution in [4] (solubility) came to 28 µM (≈ 11.9 µg/mL). Moreover, at Histone deacetylase 1 [6], the result was Active.
Turning to `CCCCc1nc2cc(C(=O)NC(=O)NCCCCCC(=O)NO)ccc2n1CCN1CCCC1`, the 50% inhibitory concentration (IC50) against Histone deacetylase 1 [1] came out at 2910 nM; in the data set with PC-3, 1250 nM; in the data set with HCT-116 [3], 3520 nM; against Histone deacetylase 1 [2], 22 nM; in the data set with A2780, 1350 nM. In [4], this compound returned a solubility of over 211 µM. The compound also came in with a half-life in data set [5] of over 30 min. Also, the result at Histone deacetylase 1 [6] was Active.
For `O=C(CCCCCNC(=O)NC(=O)c1ccc(F)cc1)NO`, the half-inhibitory concentration (IC50) was 2550 nM against Histone deacetylase 1 [1] and 115 nM against Histone deacetylase 1 [2].
Turning to `O=C(CCCCCNC(=O)NC(=O)c1ccc2c(c1)nc(CCc1ccccc1)n2CCN1CCCC1)NO`, the figures for the IC50 at Histone deacetylase 1 [1] and against Histone deacetylase 1 [2] were 5380 nM and 34 nM, respectively. Moreover, in data set [4], the solubility is over 250 µM. Besides, the half-life in data set [5] came to 21 min. Moreover, the result on Histone deacetylase 1 [6] was Active.
For the compound `O=C(CCCCCN(CCCc1ccccc1)C(=O)NC(=O)c1ccccc1)NO`, the IC50 came to 392 nM against Histone deacetylase 1 [2] and 328 nM on Histone deacetylase 8.
For `O=C(CCCCCCC(=O)Nc1ccccc1)NO` [VORINOSTAT], the half-life in data set [7] is over 30 min; in data set [9], over 30 min; in data set [17], 22.8 min; in data set [5] it was over 60 min. The Vd in data set [8] was 0.81 L/kg. In addition, the solubility thermodynamic in data set [10] was 166 µg/mL (≈ 628 µM). The compound further showed a bioavailability in [11] of 8.3%. The logD in [12] is 1.04. Further, in data set [13], the Papp A→B was found to be 1.7 ×10⁻⁶ cm/s. The outcome in the data set on HCT-116 [14] was Active. This compound also gave a clearance in data set [15] of 112 mL/min/kg. Also, the solubility in [4] is over 250 µM. Moreover, the MTD in data set [16] worked out at 160 mg/kg.
`O=C(CCCCCN(Cc1ccccn1)C(=O)NC(=O)c1ccccc1)NO`: the 50% inhibitory concentration (IC50) on Histone deacetylase 1 [1] worked out at 14700 nM; against Histone deacetylase 1 [2], 245 nM.
On the same counts, the results for `O=C(CCCCCNC(=O)NC(=O)c1ccc2c(c1)ncn2CCCc1ccccc1)NO` are 3750 nM and 20 nM.
With `CN1CCN(c2ccc(C(=O)NC(=O)NCCCCCC(=O)NO)cc2[N+](=O)[O-])CC1`, the IC50 against Histone deacetylase 1 [1] is 11500 nM; against Histone deacetylase 1 [2], 43 nM.
Turning to `O=C(CCCNC(=O)NC(=O)c1ccccc1)NO`, the IC50 at Histone deacetylase 1 [2] and against Histone deacetylase 8 was over 10000 nM in each case.
On to `O=C(CCCCCCCNC(=O)NC(=O)c1ccccc1)NO`, for which the IC50 at Histone deacetylase 1 [1] was determined as 8280 nM; against Histone deacetylase 8 it was 405 nM.
Take `O=C(CCCCCNC(=O)NC(=O)c1ccc(I)cc1)NO`: the half-maximal inhibitory concentration (IC50) worked out at 870 nM against Histone deacetylase 1 [1] and 8 nM against Histone deacetylase 1 [2].
Turning to `O=C(CCCCCN(Cc1ccccc1)C(=O)NC(=O)c1ccccc1)NO`, the IC50 at Histone deacetylase 1 [1] came to 3190 nM; at Histone deacetylase 1 [2] it was 355 nM. For the same compound, at Histone deacetylase 1 [6], the outcome was Active.
For the compound `O=C(CCCCCNC(=O)NC(=O)c1ccc([N+](=O)[O-])cc1)NO`, the IC50 stood at 2310 nM against Histone deacetylase 1 [1] and 45 nM at Histone deacetylase 1 [2]. Further, the result on Histone deacetylase 1 [6] was Active.
Take `O=C(CCCCCNC(=O)NC(=O)c1ccc2ccccc2c1)NO`: the IC50 against Histone deacetylase 1 [1] was 2150 nM; against Histone deacetylase 1 [2], 6 nM.
For `O=C(CCCCCNC(=O)NC(=O)c1cccc(Br)c1)NO`, the IC50 was 3150 nM on Histone deacetylase 1 [1] and 60 nM at Histone deacetylase 1 [2].
On the same counts, the results for `O=C(CCCCCNC(=O)NC(=O)c1ccc(N2CCCCC2)c([N+](=O)[O-])c1)NO` are 3250 nM and 46 nM.
`O=C(CCCCCNC(=O)NC(=O)c1ccc(-c2cncnc2)cc1)NO`: the 50% inhibitory concentration (IC50) against Histone deacetylase 1 [1] turned out to be 10000 nM; against Histone deacetylase 1 [2], 26 nM. Moreover, in [4], the solubility was 17 µM (≈ 6.31 µg/mL). In data set [5], the half-life was over 30 min. The outcome at Histone deacetylase 1 [6] was Active.
Regarding `O=C(CCCCCCNC(=O)NC(=O)c1ccccc1)NO`, the concentration for half-maximal inhibition (IC50) against Histone deacetylase 1 [1] was 2680 nM; at Histone deacetylase 1 [2], 145 nM. Also, the result on Histone deacetylase 1 [6] was Active.
As to `O=C(CCCCCNC(=O)NC(=O)c1c(Cl)cccc1Cl)NO`, the figures for the IC50 against Histone deacetylase 1 [1] and against Histone deacetylase 1 [2] were 2950 nM and 185 nM, respectively.
On the same counts, the results for `O=C(CCCCCNC(=O)NC(=O)c1ccc(Cl)cc1)NO` are 1600 nM and 26 nM.
Turning to `CCN(CC)CCn1cnc2cc(C(=O)NC(=O)NCCCCCC(=O)NO)ccc21`, the half-inhibitory concentration (IC50) came to 5100 nM on Histone deacetylase 1 [1] and 21 nM on Histone deacetylase 1 [2].
